Laboratory results published in patent publication US20240279221A1, “HETEROCYCLIC COMPOUNDS AND METHODS OF USE” (Schrödinger, Inc., priority 2021, published 2024).
Each block holds one compound with its values, some of them ahead of it.

Experiments:
[1] = molecular target: SOS1:KRAS (G12C) interaction (Homo sapiens (Human), UniProt Q07889); test: SOS1-KRas(G12C) FRET Assay; assay type: binding; conditions: 0.5 nM His10-SOS1 (res. 564-1049), 2.5 nM GST-KRAS (res. 1-169, G12C); read-out: SOS-KRas(G12C) FRET IC50
Sequence of SOS1:KRAS (G12C) interaction (Q07889 564-1049, stated change not applied): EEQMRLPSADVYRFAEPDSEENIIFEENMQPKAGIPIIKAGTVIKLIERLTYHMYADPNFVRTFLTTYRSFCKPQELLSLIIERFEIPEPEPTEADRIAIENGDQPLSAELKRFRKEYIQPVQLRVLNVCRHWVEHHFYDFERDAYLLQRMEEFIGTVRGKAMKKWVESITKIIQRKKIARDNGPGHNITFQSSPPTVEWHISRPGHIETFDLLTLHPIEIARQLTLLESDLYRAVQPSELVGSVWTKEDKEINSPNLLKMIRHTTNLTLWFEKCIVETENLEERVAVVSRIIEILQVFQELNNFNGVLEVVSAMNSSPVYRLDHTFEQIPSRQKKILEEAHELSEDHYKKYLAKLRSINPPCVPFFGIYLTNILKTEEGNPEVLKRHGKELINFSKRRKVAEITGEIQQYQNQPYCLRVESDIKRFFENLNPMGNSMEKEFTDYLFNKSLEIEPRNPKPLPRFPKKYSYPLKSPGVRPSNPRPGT
Method in brief: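 TR-FRET measured binding of His10-SOS1 (res. 564-1049, 0.5 nM) to GST-KRAS G12C (res. 1-169, 2.5 nM), with anti-GST-Eu(K) and anti-6His-XL665 labels, in PBS with BSA, MgCl2, KF and DTT; 0.5% DMSO. Compound and SOS1 were pre-incubated 15 min at 25° C, KRAS was added, and the plate was read at 665/615 nm after 2 h at RT. IC50 and Hill slope came from non-linear regression.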

[2] = molecular target: human SOS1 (Homo sapiens (Human), UniProt Q07889); test: Surface Plasmon Resonance (SPR) SOS1 Binding Assay; conditions: biotinylated SOS1 (res. 564-1049), 25° C., kinetic or steady state fit, read-out: KD for hSOS1
Sequence of human SOS1 (Q07889 564-1049): as the sequence (Q07889 564-1049, stated change not applied) above
Method in brief: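 Biotinylated human SOS1 (res. 564-1049, N-terminal Avi tag) captured on streptavidin chip to ~3,000 RU; 25° C., Tris buffer pH 8.0 with 1 mM MgCl2, 5% DMSO running buffer. Compound series (top 100, 50 or 0.5 μM) injected 60 s, dissociation 600 s; double-referenced KD from 1:1 kinetic or steady-state fit.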

SMILES: C[C@@H](Nc1nn(C)c(=O)c2cc(=O)n(C3CCOCC3)cc12)c1cccc2sccc12 [Example 62, (R)-4-((1-(benzo[b]thiophen-4-yl)ethyl)amino)-2-methyl-6-(tetrahydro-2H-pyran-4-yl)-2,6-dihydropyrido[3,4-d]pyridazine-1,7-dione]
IC50 [1]: 75.3 nM
Kd [2]: 13 nM

SMILES: C[C@@H](Nc1nn(C)c(=O)c2c(Br)c(=O)n(C3(C(F)F)CC3)cc12)c1cccc(C(F)F)c1F [Example 72, (R)-8-bromo-4-((1-(3-(difluoromethyl)-2-fluorophenyl)ethyl)amino)-6-(1-(difluoromethyl)cyclopropyl)-2-methyl-2,6-dihydropyrido[3,4-d]pyridazine-1,7-dione]
IC50 [1]: 68.3 nM
Kd [2]: 60 nM

SMILES: C[C@@H](Nc1nn(C)c(=O)c2cc(=O)n(C3CCOCC3)cc12)c1cccc(C(F)(F)F)c1 [Example 5, (R)-2-methyl-6-(tetrahydro-2H-pyran-4-yl)-4-((1-(3-(trifluoromethyl)phenyl)ethyl)amino)-2,6-dihydropyrido[3,4-d]pyridazine-1,7-dione]
IC50 [1]: 96.4 nM
Kd [2]: 22 nM

SMILES: COc1c(=O)n([C@@H]2CCOC[C@@H]2F)cc2c(N[C@H](C)c3cccc(C(F)F)c3F)nn(C)c(=O)c12 (single isomer, unassigned) [Example 58]
IC50 [1]: 32.7 nM
Kd [2]: 15 nM

SMILES: C[C@H](Nc1nn(C)c(=O)c2cc(=O)n(C3CC3)cc12)c1ccc2c(C#N)nn(C)c2c1 (single isomer, unassigned) [Example 26]
IC50 [1]: 100000 nM
Kd [2]: > 50000 nM

SMILES: C[C@@H](Nc1nn(C)c(=O)c2cc(=O)n(C3CCOCC3)cc12)c1cccc2c1OCC2(F)F [Example 47, (R)-4-((1-(3,3-difluoro-2,3-dihydrobenzofuran-7-yl)ethyl)amino)-2-methyl-6-(tetrahydro-2H-pyran-4-yl)-2,6-dihydropyrido[3,4-d]pyridazine-1,7-dione]
IC50 [1]: 82.4 nM
Kd [2]: 6 nM

SMILES: C[C@H](Nc1nn(C)c(=O)c2cc(=O)n([C@H]3C[C@@H](C#N)C3)cc12)c1cccc(C(F)F)c1F [Example 75, (1S,3s)-3-(4-(((R)-1-(3-(difluoromethyl)-2-fluorophenyl)ethyl)amino)-2-methyl-1,7-dioxo-1,7-dihydropyrido[3,4-d]pyridazin-6(2H)-yl)cyclobutane-1-carbonitrile]
IC50 [1]: 127 nM
Kd [2]: 73 nM

SMILES: C[C@@H](Nc1nn(C)c(=O)c2cc(=O)n([C@@H]3CCCOC3)cc12)c1cccc(C(F)F)c1F (single isomer, unassigned) [Example 39]
IC50 [1]: 160 nM
Kd [2]: 43 nM

SMILES: C[C@@H](Nc1nn(C)c(=O)c2cc(=O)n(C3CCOCC3)cc12)c1cccc(C(F)(F)C(C)(C)O)c1F [Example 40, (R)-4-((1-(3-(1,1-difluoro-2-hydroxy-2-methylpropyl)-2-fluorophenyl)ethyl)amino)-2-methyl-6-(tetrahydro-2H-pyran-4-yl)-2,6-dihydropyrido[3,4-d]pyridazine-1,7-dione]
IC50 [1]: 21.1 nM
Kd [2]: 9 nM

Second part, the compound after the results:

IC50 [1]: 60.5 nM
Kd [2]: 24 nM
SMILES: C[C@@H](Nc1nn(C)c(=O)c2cc(=O)n(C3(C(F)F)CC3)cc12)c1cccc(C(F)F)c1F [Example 43, (R)-4-((1-(3-(difluoromethyl)-2-fluorophenyl)ethyl)amino)-6-(1-(difluoromethyl)cyclopropyl)-2-methyl-2,6-dihydropyrido[3,4-d]pyridazine-1,7-dione]

IC50 [1]: 51.3 nM
Kd [2]: 13 nM
SMILES: COc1c(=O)n(C2CCCCC2)cc2c(N[C@H](C)c3cccc(C(F)F)c3F)nn(C)c(=O)c12 [Example 49, (R)-6-cyclohexyl-4-((1-(3-(difluoromethyl)-2-fluorophenyl)ethyl)amino)-8-methoxy-2-methyl-2,6-dihydropyrido[3,4-d]pyridazine-1,7-dione]

IC50 [1]: 72.5 nM
Kd [2]: 26 nM
SMILES: C[C@@H](Nc1nn(C)c(=O)c2cc(=O)n(C3(C#N)CC3)cc12)c1cccc(C(F)F)c1F [Example 66, (R)-1-(4-((1-(3-(difluoromethyl)-2-fluorophenyl)ethyl)amino)-2-methyl-1,7-dioxo-1,7-dihydropyrido[3,4-d]pyridazin-6(2H)-yl)cyclopropane-1-carbonitrile]

IC50 [1]: 33.3 nM
Kd [2]: 16 nM
SMILES: C[C@@H](Nc1nn(C)c(=O)c2cc(=O)n(C3CCOCC3)cc12)c1cccc(C(C)(F)F)c1F [Example 36, (R)-4-((1-(3-(1,1-difluoroethyl)-2-fluorophenyl)ethyl)amino)-2-methyl-6-(tetrahydro-2H-pyran-4-yl)-2,6-dihydropyrido[3,4-d]pyridazine-1,7-dione]

IC50 [1]: 192 nM
Kd [2]: 75 nM
SMILES: CC(=O)c1c(=O)n(C2CC2)cc2c(N[C@H](C)c3cccc(C(F)(F)F)c3C)nn(C)c(=O)c12 [Example 48, (R)-8-acetyl-6-cyclopropyl-2-methyl-4-((1-(2-methyl-3-(trifluoromethyl)phenyl)ethyl)amino)-2,6-dihydropyrido[3,4-d]pyridazine-1,7-dione]

IC50 [1]: 43.9 nM
Kd [2]: 10 nM
SMILES: Cc1c([C@@H](C)Nc2nn(C)c(=O)c3c([C@@H]4CCCN4)c(=O)n(C4CC4)cc23)cccc1C(F)(F)F (single isomer, unassigned) [Example 34]

IC50 [1]: 1930 nM
Kd [2]: 530 nM
SMILES: C[C@@H](Nc1nn(C)c(=O)c2cc(=O)n(C3CC3)cc12)c1cc(Br)cs1 [Example 56, (R)-4-((1-(4-bromothiophen-2-yl)ethyl)amino)-6-cyclopropyl-2-methyl-2,6-dihydropyrido[3,4-d]pyridazine-1,7-dione]

IC50 [1]: 286 nM
Kd [2]: 64 nM
SMILES: CC(=O)N1CCC(n2cc3c(N[C@H](C)c4cccc(C(F)(F)F)c4C)nn(C)c(=O)c3cc2=O)CC1 [Example 9, (R)-6-(1-acetylpiperidin-4-yl)-2-methyl-4-((1-(2-methyl-3-(trifluoromethyl)phenyl)ethyl)amino)-2,6-dihydropyrido[3,4-d]pyridazine-1,7-dione]

IC50 [1]: 328 nM
Kd [2]: 57 nM
SMILES: Cc1c([C@@H](C)Nc2nn(C)c(=O)c3cc(=O)n(C4CC4)cc23)cccc1C(F)(F)F [Example 2, (R)-6-cyclopropyl-2-methyl-4-((1-(2-methyl-3-(trifluoromethyl)phenyl)ethyl)amino)-2,6-dihydropyrido[3,4-d]pyridazine-1,7-dione]

IC50 [1]: 76200 nM
Kd [2]: 3020 nM
SMILES: Cc1cc([C@H](C)Nc2nn(C)c(=O)c3cc(=O)n(C4CC4)cc23)cc2c1c(C#N)nn2C (single isomer, unassigned) [Example 28]

IC50 [1]: 24.6 nM
Kd [2]: 10 nM
SMILES: C[C@@H](Nc1nn(C)c(=O)c2cc(=O)n(C3CCOCC3)cc12)c1cccc2c1CCC2(F)F [Example 67, (R)-4-((1-(1,1-difluoro-2,3-dihydro-1H-inden-4-yl)ethyl)amino)-2-methyl-6-(tetrahydro-2H-pyran-4-yl)pyrido[3,4-d]pyridazine-1,7(2H,6H)-dione]
